The assay concerns the target T1, recombinant human androgen receptor (hAR) (Homo sapiens, UniProt P10275).
T1 construct: made in house; host or cells: baculovirus/Sf9 insect cells (crude extract)
T1 sequence (P10275 1-920): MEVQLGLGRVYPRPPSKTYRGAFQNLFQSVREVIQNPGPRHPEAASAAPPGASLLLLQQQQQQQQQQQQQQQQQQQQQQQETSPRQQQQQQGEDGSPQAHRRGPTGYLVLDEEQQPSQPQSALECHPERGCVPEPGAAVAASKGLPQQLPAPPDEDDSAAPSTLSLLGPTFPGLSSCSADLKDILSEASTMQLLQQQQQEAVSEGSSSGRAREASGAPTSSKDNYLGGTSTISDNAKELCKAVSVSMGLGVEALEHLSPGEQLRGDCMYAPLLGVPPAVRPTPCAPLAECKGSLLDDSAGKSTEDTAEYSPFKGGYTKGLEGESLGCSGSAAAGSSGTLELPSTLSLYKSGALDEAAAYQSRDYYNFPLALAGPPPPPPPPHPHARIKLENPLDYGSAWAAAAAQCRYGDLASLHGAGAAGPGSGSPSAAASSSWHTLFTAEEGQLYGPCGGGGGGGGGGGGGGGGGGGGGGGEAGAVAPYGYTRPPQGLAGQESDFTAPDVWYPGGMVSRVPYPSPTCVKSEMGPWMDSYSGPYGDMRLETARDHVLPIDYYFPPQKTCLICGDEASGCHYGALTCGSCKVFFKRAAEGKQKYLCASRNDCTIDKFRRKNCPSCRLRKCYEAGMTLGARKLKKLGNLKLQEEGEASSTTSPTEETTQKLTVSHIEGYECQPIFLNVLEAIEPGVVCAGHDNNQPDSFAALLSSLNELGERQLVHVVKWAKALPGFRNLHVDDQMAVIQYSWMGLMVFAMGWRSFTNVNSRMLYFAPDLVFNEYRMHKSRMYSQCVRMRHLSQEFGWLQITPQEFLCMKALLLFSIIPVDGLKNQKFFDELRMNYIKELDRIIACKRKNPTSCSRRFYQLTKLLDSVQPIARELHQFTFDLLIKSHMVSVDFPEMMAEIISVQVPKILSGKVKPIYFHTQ
The experiment in a line: Human androgen receptor binding analysis (3H-DHT competitive binding). On the procedure:
The following is a brief description of the assay that determines the affinity of a compound for the recombinant human androgen receptor (hAR). Competitive binding analysis is performed on baculovirus/Sf9 generated hAR extracts in the presence or absence of differing concentrations of drug and a fixed concentration of ^3H-dihydrotestosterone (^3H-DHT) as tracer. This binding assay method is a modification of a protocol previously described (Chang, et. al. J. Steroid Biochem. 20(1):11-17 1984). Briefly, progressively decreasing concentrations of compounds are incubated in the presence of hAR extract (Chang et al. P.N.A.S. Vol. 89, pp. 5546-5950, 1992), hydroxylapatite and 1 nM ^3H-DHT for one hour at 4° C. Subsequently, the binding reactions are washed three times to completely remove excess unbound ^3H-DHT. hAR bound ^3H-DHT levels are determined in the presence of compounds (=competitive binding) and compared to levels bound when no competitor is present (=maximum binding). Compound binding affinity to the hAR is expressed as the concentration of compound at which one half of the maximum binding is inhibited (the IC50).

SMILES strings stand for the structures.

Take `CC[C@H]1CCCCN1c1ccc(C#N)c(C(F)(F)F)c1` [Example 1, 4-(2-(S)-Ethyl-piperidin-1-yl)-2-trifluoromethyl-benzonitrile]: the IC50 was determined as 5.21 nM.

Source of the values: patent publication US20080045504A1, “Benzonitrile Derivatives to Treat Musculoskeletal Frailty” (PFIZER PRODUCTS INC., priority 2004, published 2008).
